Measured values reported in US10364256B2 (GlaxoSmithKline Intellectual Property Development Limited, priority 2015, dated 2019).
Like-named read-outs stand apart in the source and are kept apart here.

Experiments:
[1] = system: NQO1 specific enzyme activity in BEAS-2B cells (marker for NRF2 activation); assay: BEAS-2B NQO1 MTT Assay; format: cell-based; conditions: Homo sapiens, compound incubated 48 hours, read-out: EC50 (NQO1 specific enzyme activity induction)
In short: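 BEAS-2B cells treated with compound for 48 h at 37 °C, then lysed; NQO1 activity in lysates measured kinetically by MTT reduction at A570 over 30 min. pEC50 from 3-parameter fit of ΔOD/min versus log concentration; lysate also taken for Cell Titer Glo.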

[2] = target: T1, full length Keap1 protein / full length NRF2 protein (Homo sapiens, UniProt Q14145); assay: NRF2-Keap1 TR-FRET Low Protein Assay; format: binding; conditions: 1.25 nM Keap1 FlagHis and 2.5 nM biotin-NRF2 added
T1 construct: full length NRF2 protein and full length Keap1 protein (Keap1 exists a dimer) are used; His
In short: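 Flag-tagged full-length Keap1 was preincubated with compound (3-fold series) for 2.25 h at 37 °C in Tris pH 8.0/MgCl2/NaCl/BSA/DTT/CHAPS. Biotin-Avi-NRF2 (added at 2.5 nM) was then bound for 1.25 h at 4 °C. Eu-streptavidin/anti-Flag-APC TR-FRET (665/615 nm) was read after 1 h at RT, and pIC50 came from a four-parameter fit.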

T1 sequence (Q14145 whole entry): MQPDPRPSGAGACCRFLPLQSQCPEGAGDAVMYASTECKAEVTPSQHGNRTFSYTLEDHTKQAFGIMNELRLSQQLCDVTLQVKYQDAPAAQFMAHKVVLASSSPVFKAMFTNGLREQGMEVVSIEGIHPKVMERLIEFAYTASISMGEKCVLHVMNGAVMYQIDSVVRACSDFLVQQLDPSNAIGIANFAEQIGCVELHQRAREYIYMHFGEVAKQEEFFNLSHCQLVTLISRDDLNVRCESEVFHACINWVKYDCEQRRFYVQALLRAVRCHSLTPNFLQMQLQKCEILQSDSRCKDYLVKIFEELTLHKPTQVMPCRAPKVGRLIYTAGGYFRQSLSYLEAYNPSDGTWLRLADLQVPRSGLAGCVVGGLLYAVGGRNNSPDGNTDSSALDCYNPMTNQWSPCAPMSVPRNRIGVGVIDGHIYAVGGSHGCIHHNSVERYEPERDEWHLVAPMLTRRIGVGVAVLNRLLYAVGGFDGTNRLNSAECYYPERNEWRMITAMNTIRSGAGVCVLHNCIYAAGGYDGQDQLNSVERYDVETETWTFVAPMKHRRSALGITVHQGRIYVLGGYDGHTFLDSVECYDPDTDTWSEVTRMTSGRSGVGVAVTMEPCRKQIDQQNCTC

Row | IC50 [2] | SMILES | EC50 [1] | EC50 ([1]; BEAS-2B, 48 h)
1 | 10 to 100 nM | Cn1cc([C@@H]2C[C@H]2c2c(C(=O)O)cnn2-c2cccc(-c3cccc(OC[C@H]4CC[C@H](C(F)(F)F)CC4)c3)c2)nn1 (racemic) [Example 146, 5-((1,2-trans)-2-(1-Methyl-1H-1,2,3-triazol-4-yl)cyclopropyl)-1-(3′-(((1r,4R)-4-(trifluoromethyl)cyclohexyl)methoxy)-[1,1′-biphenyl]-3-yl)-1H-pyrazole-4-carboxylic acid] | 10 to 100 nM | –
2 | 1000 to 10000 nM | Cc1nn(-c2cccc(-c3cccc(OCC4CCCCC4)c3)c2)c(C2CC2c2cn(C)nn2)c1C(=O)O (stereo not shown) [Example 188, 1-(3′-(cyclohexylmethoxy)-[1,1′-biphenyl]-3-yl)-3-methyl-5-(2-(1-methyl-1H-1,2,3-triazol-4-yl)cyclopropyl)-1H-pyrazole-4-carboxylic Acid] | 100 to 1000 nM | –
3 | 100 to 1000 nM | Cn1cc(C2CC2c2c(C(=O)O)cnn2-c2cccc(-c3cccc(OCc4ccc(F)cc4)c3)c2)nn1 (stereo not shown) [Example 223, 1-(3′-((4-Fluorobenzyl)oxy)-[1,1′-biphenyl]-3-yl)-5-(2-(1-methyl-1H-1,2,3-triazol-4-yl)cyclopropyl)-1H-pyrazole-4-carboxylic acid] | 100 to 1000 nM | –
4 | 10 to 100 nM | CCC1CCC(COc2cccc(-c3cccc(-n4ncc(C(=O)O)c4[C@@H]4C[C@H]4c4cn(C)nn4)c3)c2)CC1 (mixture of isomers) [Example 150, 1-(3′-((4-Ethylcyclohexyl)methoxy)-[1,1′-biphenyl]-3-yl)-5-((1,2-trans)-2-(1-methyl-1H-1,2,3-triazol-4-yl)cyclopropyl)-1H-pyrazole-4-carboxylic acid] | 10 to 100 nM | –
5 | 10 to 100 nM | Cn1cc([C@@H]2C[C@H]2c2c(C(=O)O)cnn2-c2cccc(-c3cccc(OCC4CCCSC4)c3)c2)nn1 (mixture of isomers) [Example 144, 5-((1,2-trans)-2-(1-Methyl-1H-1,2,3-triazol-4-yl)cyclopropyl)-1-(3′-((tetrahydro-2H-thiopyran-3-yl)methoxy)-[1,1′-biphenyl]-3-yl)-1H-pyrazole-4-carboxylic Acid] | 10 to 100 nM | –
6 | 10 to 100 nM | Cn1cc([C@H]2C[C@@H]2c2c(C(=O)O)cnn2-c2cccc(-c3cccc(OCC4CCCC(Cl)C4)c3)c2)nn1 (mixture of isomers) [Example 187, 1-(3′-((3-chlorocyclohexyl)methoxy)-[1,1′-biphenyl]-3-yl)-5-((1,2-trans)-2-(1-methyl-1H-1,2,3-triazol-4-yl)cyclopropyl)-1H-pyrazole-4-carboxylic acid] | 10 to 100 nM | –
7 | < 10 nM | CCC[C@@H]1CCCCN1C(=O)c1cccc(-c2cc(C)cc(-n3ncc(C(=O)O)c3[C@@H]3C[C@H]3c3cn(C)nn3)c2)c1 (single isomer, unassigned) [Example 155] | – | 100 to 1000 nM
8 | < 10 nM | CCC[C@@H]1CCCCN1C(=O)c1cccc(-c2cc(C)cc(-n3ncc(C(=O)O)c3C3CC3c3cn(C)nn3)c2)c1 (stereo partly drawn) [Example 154, 5-(2-(1-Methyl-1H-1,2,3-triazol-4-yl)cyclopropyl)-1-(5-methyl-3′-((R)-2-propylpiperidine-1-carbonyl)-[1,1′-biphenyl]-3-yl)-1H-pyrazole-4-carboxylic Acid] | – | 100 to 1000 nM
9 | 100 to 1000 nM | CC(Oc1cccc(-c2cccc(-n3ncc(C(=O)O)c3[C@@H]3C[C@H]3c3cn(C)nn3)c2)c1)C1CCCCC1 (stereo partly drawn) [Example 163, 1-(3′-(1-Cyclohexylethoxy)-[1,1′-biphenyl]-3-yl)-5-((1R,2R)-2-(1-methyl-1H-1,2,3-triazol-4-yl)cyclopropyl)-1H-pyrazole-4-carboxylic acid] | – | 10 to 100 nM
10 | < 10 nM | CCCC1CCCCN1C(=O)c1cccc(-c2cccc(-n3ncc(C(=O)O)c3C3CC3c3cccnn3)c2)c1 (stereo not shown) [Example 41, 1-[3′-(2-Propyl-piperidine-1-carbonyl)-biphenyl-3-yl]-5-(2-pyridazin-3-yl-cyclopropyl)-1H-pyrazole-4-carboxylic Acid] | – | 1000 to 10000 nM
11 | < 10 nM | CCCC1CCCCN1C(=O)c1cccc(-c2cccc(-n3ncc(C(=O)O)c3C3CC3c3cn(C)nn3)c2)c1 (stereo not shown) [Example 42, 5-[2-(1-methyl-1H-1,2,3-triazol-4-yl)cyclopropyl]-1-{3-[3-(2-propylpiperidine-1-carbonyl)phenyl]phenyl}-1H-pyrazole-4-carboxylic Acid] | – | 100 to 1000 nM
12 | 10 to 100 nM | COC1CCCC(COc2cccc(-c3cccc(-n4ncc(C(=O)O)c4[C@H]4C[C@@H]4c4cn(C)nn4)c3)c2)C1 (mixture of isomers) [Example 178, 1-(3′-((3-Methoxycyclohexyl)methoxy)-[1,1′-biphenyl]-3-yl)-5-((1,2-trans)-2-(1-methyl-1H-1,2,3-triazol-4-yl)cyclopropyl)-1H-pyrazole-4-carboxylic acid] | 100 to 1000 nM | –

The remaining lines, values behind:

Row | SMILES | IC50 [2] | EC50 [1] | EC50 ([1]; BEAS-2B, 48 h)
13 | CC(Oc1cccc(-c2cccc(-n3ncc(C(=O)O)c3[C@H]3C[C@@H]3c3cn(C)nn3)c2)c1)C1CCCCCC1 (mixture of isomers) [Example 230, 1-(3′-(1-Cycloheptylethoxy)-[1,1′-biphenyl]-3-yl)-5-((1,2-trans)-2-(1-methyl-1H-1,2,3-triazol-4-yl)cyclopropyl)-1H-pyrazole-4-carboxylic acid] | 10 to 100 nM | 1 to 10 nM | –
14 | Cn1cc(C2CC2c2c(C(=O)O)cnn2-c2cccc(-c3cccc(OC4CCCN(C(=O)OC(C)(C)C)C4)c3)c2)nn1 (stereo not shown) [Example 232, 1-(3′-((1-(tert-Butoxycarbonyl)piperidin-3-yl)oxy)-[1,1′-biphenyl]-3-yl)-5-(2-(1-methyl-1H-1,2,3-triazol-4-yl)cyclopropyl)-1H-pyrazole-4-carboxylic acid] | 10 to 100 nM | 100 to 1000 nM | –
15 | CCc1nc(-c2cccc(-c3cccc(-n4ncc(C(=O)O)c4C4CC4)c3)c2)no1 [Example 209, 5-Cyclopropyl-1-(3′-(5-ethyl-1,2,4-oxadiazol-3-yl)-[1,1′-biphenyl]-3-yl)-1H-pyrazole-4-carboxylic Acid] | 1000 to 10000 nM | 1000 to 10000 nM | –
16 | Cn1cc(C2CC2c2c(C(=O)O)cnn2-c2cccc(-c3cccc(SCC4CCCCC4)c3)c2)nn1 (stereo not shown) [Example 179, 1-(3′-((Cyclohexylmethyl)thio)-[1,1′-biphenyl]-3-yl)-5-(2-(1-methyl-1H-1,2,3-triazol-4-yl)cyclopropyl)-1H-pyrazole-4-carboxylic acid] | 10 to 100 nM | 1 to 10 nM | –
17 | Cn1cc([C@@H]2C[C@H]2c2c(C(=O)O)cnn2-c2cccc(-c3cccc(OCC4CCCCC4)c3F)c2)nn1 (racemic) [Example 152, 1-(3′-(Cyclohexylmethoxy)-2′-fluoro-[1,1′-biphenyl]-3-yl)-5-((1,2-trans)-2-(1-methyl-1H-1,2,3-triazol-4-yl)cyclopropyl)-1H-pyrazole-4-carboxylic Acid] | 10 to 100 nM | 10 to 100 nM | –
18 | Cn1cc([C@@H]2C[C@H]2c2c(C(=O)O)cnn2-c2cccc(-c3cccc(OCC4CCC(F)(F)CC4)c3)c2)nn1 (racemic) [Example 145, 1-(3′-((4,4-Difluorocyclohexyl)methoxy)-[1,1′-biphenyl]-3-yl)-5-((1,2-trans)-2-(1-methyl-1H-1,2,3-triazol-4-yl)cyclopropyl)-1H-pyrazole-4-carboxylic acid] | 10 to 100 nM | 100 to 1000 nM | –
19 | CC(CC1CCCCC1)Oc1cccc(-c2cccc(-n3ncc(C(=O)O)c3C3CC3c3cn(C)nn3)c2)c1 (stereo not shown) [Example 218, 1-(3′-((1-Cyclohexylpropan-2-yl)oxy)-[1,1′-biphenyl]-3-yl)-5-(2-(1-methyl-1H-1,2,3-triazol-4-yl)cyclopropyl)-1H-pyrazole-4-carboxylic Acid] | 10 to 100 nM | 10 to 100 nM | –
20 | CC(Oc1cccc(-c2cccc(-n3ncc(C(=O)O)c3[C@H]3C[C@@H]3c3cn(C)nn3)c2)c1)c1ccc(-c2ccccc2)cc1 (mixture of isomers) [Example 240, 1-(3′-(1-([1,1′-Biphenyl]-4-yl)ethoxy)-[1,1′-biphenyl]-3-yl)-5-((1,2- trans)-2-(1-methyl-1H-1,2,3-triazol-4-yl)cyclopropyl)-1H-pyrazole-4-carboxylic acid] | 100 to 1000 nM | 100 to 1000 nM | –
21 | CCC[C@@H]1CCCCN1C(=O)c1cccc(-c2cccc(-n3ncc(C(=O)O)c3C3CC3(F)F)c2)c1 (stereo partly drawn) [Example 67, 5-(2,2-Difluorocyclopropyl)-1-(3′-((R)-2-propylpiperidine-1-carbonyl)-[1,1′-biphenyl]-3-yl)-1H-pyrazole-4-carboxylic Acid] | 10 to 100 nM | – | 100 to 1000 nM
22 | CCC[C@@H]1CCCCN1C(=O)c1cccc(-c2cccc(-n3ncc(C(=O)O)c3[C@@H]3C[C@H]3c3cn(C)nn3)c2)c1 [Example 51h, 5-[(1R,2R)-2-(1-methyl-1H-1,2,3-triazol-4-yl)cyclopropyl]-1-(3-{3-[(2R)-2-propylpiperidine-1-carbonyl]phenyl}phenyl)-1H-pyrazole-4-carboxylic Acid] | < 10 nM | – | 10 to 100 nM
23 | Cn1cc([C@H]2C[C@@H]2c2c(C(=O)O)cnn2-c2cccc(-c3cccc(OC[C@H]4CC[C@H](Cl)CC4)c3)c2)nn1 (racemic) [Example 185, 1-(3′-((4-Chlorocyclohexyl)methoxy)-[1,1′-biphenyl]-3-yl)-5-((1,2-trans)-2-(1-methyl-1H-1,2,3-triazol-4-yl)cyclopropyl)-1H-pyrazole-4-carboxylic Acid] | 10 to 100 nM | 10 to 100 nM | –
